Laboratory results published in PMC11601441 (bioRxiv, 2024).

What was measured:
Type in all cases: cell-based
mouse GPR17 (mGPR17) = mouse GPR17 (mGPR17) (Mus musculus, UniProt Q6NS65); experiment: calcium flux in GLUTag cells expressing mGPR17
[1] = molecular target: human GPR17 long isoform (hGPR17L) (Homo sapiens, UniProt Q13304)
[2] = molecular target: human GPR17 long isoform V96M (hGPR17L-V96M) (Homo sapiens, UniProt Q13304, V96M); experiment: calcium flux in GLUTag cells expressing hGPR17L-V96M
Chain of human GPR17 long isoform V96M (hGPR17L-V96M) (Q13304 whole entry V96M, canonical isoform): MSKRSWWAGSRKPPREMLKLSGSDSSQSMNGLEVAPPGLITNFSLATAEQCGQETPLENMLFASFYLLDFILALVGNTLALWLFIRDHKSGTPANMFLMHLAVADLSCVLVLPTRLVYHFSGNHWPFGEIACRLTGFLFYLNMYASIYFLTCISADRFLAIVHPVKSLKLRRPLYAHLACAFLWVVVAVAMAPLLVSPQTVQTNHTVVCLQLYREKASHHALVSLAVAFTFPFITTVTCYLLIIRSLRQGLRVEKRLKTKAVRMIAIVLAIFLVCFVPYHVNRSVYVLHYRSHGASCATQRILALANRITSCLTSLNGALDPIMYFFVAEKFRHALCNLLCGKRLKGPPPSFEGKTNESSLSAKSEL

Chain of human GPR17 long isoform (hGPR17L) (Q13304 whole entry, canonical isoform): as the sequence (Q13304 whole entry V96M, canonical isoform) above, with M96V counted along it
Chain of mouse GPR17 (mGPR17) (Q6NS65 whole entry, canonical isoform): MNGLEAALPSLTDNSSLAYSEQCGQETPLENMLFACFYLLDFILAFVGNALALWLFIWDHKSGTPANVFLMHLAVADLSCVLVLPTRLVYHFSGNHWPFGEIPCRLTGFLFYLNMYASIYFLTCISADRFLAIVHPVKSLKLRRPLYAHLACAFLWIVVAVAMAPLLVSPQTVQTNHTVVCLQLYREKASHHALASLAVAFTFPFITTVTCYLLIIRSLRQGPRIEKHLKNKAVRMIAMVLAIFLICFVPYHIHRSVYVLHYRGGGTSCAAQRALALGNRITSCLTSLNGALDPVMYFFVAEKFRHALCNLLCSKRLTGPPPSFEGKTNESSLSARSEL

SMILES: O=C(O)CCc1c(C(=O)O)[nH]c2cc(Cl)cc(Cl)c12 [MDL29,951]
- EC50 (mouse GPR17 (mGPR17)): 680 nM
- IC50 [1]: 29 nM
- EC50 [2]: 580 nM
